Reference: patent US6300317A, “Self-assembling polynucleotide delivery system” (The Regents of the University of California, priority 1995, dated 2001)
Where two headings read alike, the source gives them in different places.

Assays:
calf thymus DNA [1] = assay: Ethidium bromide displacement assay, binding of bis-acridines to double-stranded DNA; details: computed from ethidium bromide displacement (IC50), noncooperative competitive binding model; read-out: Dissociation Constants of the Bis-acridines from Calf Thymus DNA
Procedure: The affinity of the bis-acridines for calf thymus DNA was calculated from the displacement of ethidium bromide from double stranded nucleic acids (Nielsen, supra). Ethidium displacement was monitored by the decrease of the ethidium bromide fluorescence (ex.=540 nm, em.=610 nm) that occurs when it is released from DNA. The association constants of the bis-acridines relative to ethidium bromide are calculated from their IC50. In this study, spermidine bis-acridine trihydrochloride (SBA.cndot.3HCl) synthesized as described (Nielsen, supra), was used as the reference compound. As a result of the loss of one of its three positive charges, a slight but significant decrease in affinity is observed when the N^4 amino group of spermidine bis-acridine is engaged in an amide bond with the targeting carbohydrate in compound 21 (Gal-bA.cndot.2 HCl). However, we predict an increase in affinity when spermidine bis-acridine is linked to the highly positively charged NLS peptide SEQ ID NO:1. G. Karup et al., Int J Peptide Protein Res (1988) 32:331-343.

calf thymus DNA [2] = details: constant used to compute the bis-acridine binding constants; read-out: intrinsic dissociation constant for ethidium bromide; cited from earlier work

Compound | Kd (calf thymus DNA [1]) [µM] | Kd (calf thymus DNA [2]) [µM]
O=C(CCCCCS[C@@H]1O[C@H](CO)[C@H](O)[C@H](O)[C@H]1O)NCCCC[C@H](NC(=O)CCCCCS[C@@H]1O[C@H](CO)[C@H](O)[C@H](O)[C@H]1O)C(=O)N[C@@H](CCCCNC(=O)CCCCCS[C@@H]1O[C@H](CO)[C@H](O)[C@H](O)[C@H]1O)C(=O)N(CCCCNc1c2ccccc2nc2ccccc12)CCCNc1c2ccccc2nc2ccccc12 [Gal3 Lys2 -bA] | 5.4 | 
c1ccc2c(NCCCCNCCCNc3c4ccccc4nc4ccccc34)c3ccccc3nc2c1 [SBA · 3HCl, N,N'-bis-(9-acridinyl)-4-aza-1,8-diaminooctane] | 0.024 | 
CC[n+]1c(-c2ccccc2)c2cc(N)ccc2c2ccc(N)cc21 [ethidium bromide] |  | 5.3
